In EP4741392A1, “1H-PYRAZOLO[4,3-C]PYRIDINE COMPOUND, AND COMPOSITION THEREOF AND USE THEREOF” (Shenzhen TargetRx Co., Ltd., priority 2023, dated 2025):

Experiments:
Format in all cases: biochemical
[1] = molecular target: T1, BTK C481S (Homo sapiens, UniProt Q06187, C481S); assay: Kinase activity inhibition assay (HTRF TK Kit)
T1 construct: purchased Carna 08-547
In short: (§1)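 Cmpd + substrate/ATP + kinase, assembled on ice, shaken 30 s, RT reaction; detection mix (SA-XL665 + TK Ab-cryptate) 1 h RT; 665/620 ratio. Controls: no-kinase blank, kinase + 1% DMSO. IC50 via 4-parameter logistic fit of % inhibition vs log[cmpd].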

[2] = molecular target: T2, BTK T474I (Homo sapiens, UniProt Q06187, T474I); assay: Kinase activity inhibition assay (HTRF TK Kit)
T2 construct: purchased SignalChem B10-12HH
In short: as §1

[3] = molecular target: T3, BTK kinase (Homo sapiens, UniProt Q06187); assay: Kinase activity inhibition assay (HTRF TK Kit)
T3 construct: purchased Invitrogen PV3587
In short: as §1

[4] = molecular target: T4, EGFR (Homo sapiens, UniProt P00533); assay: Kinase activity inhibition assay (HTRF TK Kit), selectivity
T4 construct: purchased Carna 08-115
In short: as §1

[5] = molecular target: T5, ITK (Homo sapiens, UniProt Q08881); assay: as above
T5 construct: purchased Carna 08-181
T5 sequence (Q08881 1-620): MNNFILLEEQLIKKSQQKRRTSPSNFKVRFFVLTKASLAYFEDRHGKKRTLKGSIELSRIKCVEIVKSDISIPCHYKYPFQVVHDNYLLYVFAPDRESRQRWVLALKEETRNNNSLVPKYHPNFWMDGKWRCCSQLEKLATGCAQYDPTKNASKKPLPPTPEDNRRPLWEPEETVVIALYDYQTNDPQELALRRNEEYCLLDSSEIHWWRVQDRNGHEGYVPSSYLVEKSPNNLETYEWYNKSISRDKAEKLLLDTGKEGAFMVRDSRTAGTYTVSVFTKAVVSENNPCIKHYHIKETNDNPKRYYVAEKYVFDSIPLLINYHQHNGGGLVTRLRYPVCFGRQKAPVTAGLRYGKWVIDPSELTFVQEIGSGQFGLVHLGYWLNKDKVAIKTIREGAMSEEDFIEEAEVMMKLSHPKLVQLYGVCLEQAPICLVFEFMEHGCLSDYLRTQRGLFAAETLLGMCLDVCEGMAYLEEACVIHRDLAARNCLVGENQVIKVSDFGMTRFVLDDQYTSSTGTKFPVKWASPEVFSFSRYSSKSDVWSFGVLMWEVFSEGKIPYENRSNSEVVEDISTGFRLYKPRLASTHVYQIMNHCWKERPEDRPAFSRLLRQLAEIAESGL
In short: as §1

[6] = molecular target: T6, TEC (Homo sapiens, UniProt P42680); assay: as above
T6 construct: purchased Carna 08-182
T6 sequence (P42680 1-631): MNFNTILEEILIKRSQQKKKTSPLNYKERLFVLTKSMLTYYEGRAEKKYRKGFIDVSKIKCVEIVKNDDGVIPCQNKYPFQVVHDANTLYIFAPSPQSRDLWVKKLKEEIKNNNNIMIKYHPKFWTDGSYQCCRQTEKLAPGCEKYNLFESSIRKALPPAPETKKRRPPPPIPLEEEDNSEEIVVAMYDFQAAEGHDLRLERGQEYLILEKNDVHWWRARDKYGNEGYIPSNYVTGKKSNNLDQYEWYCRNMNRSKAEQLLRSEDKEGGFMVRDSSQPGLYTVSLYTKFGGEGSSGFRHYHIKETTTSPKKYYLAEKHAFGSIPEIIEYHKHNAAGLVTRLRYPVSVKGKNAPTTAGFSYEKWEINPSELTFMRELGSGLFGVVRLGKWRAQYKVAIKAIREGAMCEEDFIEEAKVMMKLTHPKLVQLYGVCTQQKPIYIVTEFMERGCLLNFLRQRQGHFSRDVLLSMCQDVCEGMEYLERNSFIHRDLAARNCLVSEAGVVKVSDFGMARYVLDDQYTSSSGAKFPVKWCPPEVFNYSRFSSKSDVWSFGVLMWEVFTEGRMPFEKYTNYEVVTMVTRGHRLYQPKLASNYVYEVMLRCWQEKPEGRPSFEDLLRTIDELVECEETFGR
In short: as §1

T1 sequence (Q06187 whole entry C481S): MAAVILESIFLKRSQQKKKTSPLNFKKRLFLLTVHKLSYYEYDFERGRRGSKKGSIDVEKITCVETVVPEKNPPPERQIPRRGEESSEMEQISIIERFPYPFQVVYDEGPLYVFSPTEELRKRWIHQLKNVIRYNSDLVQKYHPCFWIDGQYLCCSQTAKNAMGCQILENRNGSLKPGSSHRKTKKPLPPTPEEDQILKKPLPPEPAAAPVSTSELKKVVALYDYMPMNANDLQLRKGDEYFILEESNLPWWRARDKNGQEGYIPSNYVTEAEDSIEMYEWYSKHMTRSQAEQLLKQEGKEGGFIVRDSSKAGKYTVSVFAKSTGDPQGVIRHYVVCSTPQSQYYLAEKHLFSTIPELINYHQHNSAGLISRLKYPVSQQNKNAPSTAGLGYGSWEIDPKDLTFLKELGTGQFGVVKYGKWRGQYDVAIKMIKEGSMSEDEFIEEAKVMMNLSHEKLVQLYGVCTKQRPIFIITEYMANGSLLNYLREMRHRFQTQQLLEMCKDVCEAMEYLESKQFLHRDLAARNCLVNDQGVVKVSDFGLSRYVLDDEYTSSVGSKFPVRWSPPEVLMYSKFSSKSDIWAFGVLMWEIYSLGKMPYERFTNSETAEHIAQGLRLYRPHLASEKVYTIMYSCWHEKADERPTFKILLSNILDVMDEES
T2 sequence (Q06187 whole entry T474I): as the sequence (Q06187 whole entry C481S) above, with T474I, S481C counted along it
T3 sequence (Q06187 whole entry): as the sequence (Q06187 whole entry C481S) above, with S481C counted along it

Row | IC50 [1] | IC50 [2] | IC50 [3] | IC50 [4] | IC50 [5] | IC50 [6] | Molecule
1 | 5 to 50 nM | 50 to 500 nM | 5 to 50 nM | > 500 nM | > 500 nM | > 500 nM | COc1ccc(F)cc1C(=O)NCc1ccc(-c2nc(C)c(-c3ncccn3)c3[nH]nc(N)c23)cc1 [Example 84, N-(4-(3-amino-6-methyl-7-(pyrimidin-2-yl)-1H-pyrazolo[4,3-c]pyridin-4-yl)benzyl)-5-fluoro-2-methoxybenzamide]
2 | 1 to 5 nM | 50 to 500 nM | 1 to 5 nM | > 500 nM | > 500 nM | 50 to 500 nM | COc1ccc(F)cc1C(=O)NCc1ccc(-c2nc(C(F)F)c(-c3ncccn3)c3[nH]nc(N)c23)cc1 [Example 85, N-(4-(3-amino-6-(difluoromethyl)-7-(pyrimidin-2-yl)-1H-pyrazolo[4,3-c]pyridin-4-yl)benzyl)-5-fluoro-2-methoxybenzamide]
3 | 1 to 5 nM | 50 to 500 nM | 1 to 5 nM | 50 to 500 nM | > 500 nM | 50 to 500 nM | COc1ccc(F)cc1C(=O)NCc1ccc(-c2nc(C3CCSCC3)cc3[nH]nc(N)c23)cc1 [Example 91, N-(4-(3-amino-6-(tetrahydro-2H-thiopyran-4-yl)-1H-pyrazolo[4,3-c]pyridin-4-yl)benzyl)-5-fluoro-2-methoxybenzamide]
4 | 1 to 5 nM | 5 to 50 nM | 1 to 5 nM | 50 to 500 nM | > 500 nM | 5 to 50 nM | C=CC(=O)N1CCCC(c2cc3[nH]nc(N)c3c(-c3ccc(CNC(=O)c4cc(F)ccc4OC)cc3)n2)C1 (stereo not drawn) [Example 96, N-(4-(6-(1-acryloylpiperidin-3-yl)-3-amino-1H-pyrazolo[4,3-c]pyridin-4-yl)benzyl)-5-fluoro-2-methoxybenzamide]
5 | 1 to 5 nM | 50 to 500 nM | 1 to 5 nM | 50 to 500 nM | > 500 nM | 5 to 50 nM | COc1ccc(F)cc1C(=O)NCc1ccc(-c2ncc(-c3nccn4nccc34)c3[nH]nc(N)c23)cc1 [Example 98, N-(4-(3-amino-7-(pyrazolo[1,5-a]pyrazin-4-yl)-1H-pyrazolo[4,3-c]pyridin-4-yl)benzyl)-5-fluoro-2-methoxybenzamide]
6 | 5 to 50 nM | 50 to 500 nM | 5 to 50 nM | 50 to 500 nM | > 500 nM | 5 to 50 nM | COc1ccc(F)cc1C(=O)NCc1ccc(-c2ncc(-c3nc4ccccc4s3)c3[nH]nc(N)c23)cc1 [Example 99, N-(4-(3-amino-7-(benzo[d]thiazol-2-yl)-1H-pyrazolo[4,3-c]pyridin-4-yl)benzyl)-5-fluoro-2-methoxybenzamide]
7 | 1 to 5 nM | 50 to 500 nM | 1 to 5 nM | 50 to 500 nM | > 500 nM | 5 to 50 nM | COc1ccc(F)cc1C(=O)NCc1ccc(-c2ncc(-c3nc4cccnc4s3)c3[nH]nc(N)c23)cc1 [Example 100, N-(4-(3-amino-7-(thiazolo[5,4-b]pyridin-2-yl)-1H-pyrazolo[4,3-c]pyridin-4-yl)benzyl)-5-fluoro-2-methoxybenzamide]
8 | 1 to 5 nM | 5 to 50 nM | 1 to 5 nM | 50 to 500 nM | 50 to 500 nM | 5 to 50 nM | CCN1CCc2nc(-c3cnc(-c4ccc(CNC(=O)c5cc(F)ccc5OC)cc4)c4c(N)n[nH]c34)sc2C1 [Example 101, N-(4-(3-amino-7-(5-ethyl-4,5,6,7-tetrahydrothiazolo[5,4-c]pyridin-2-yl)-1H-pyrazolo[4,3-c]pyridin-4-yl)benzyl)-5-fluoro-2-methoxybenzamide]
9 | 5 to 50 nM | > 500 nM | 5 to 50 nM | 50 to 500 nM | > 500 nM | > 500 nM | COc1ccc(F)cc1C(=O)NCc1ccc(-c2ncc(-c3ccc4c(n3)nc3n4CCOC3)c3[nH]nc(N)c23)cc1 [Example 102, N-(4-(3-amino-7-(6,7-dihydro-9H-pyrido[2',3':4,5]imidazo[2,1-c][1,4]oxazin-2-yl)-1H-pyrazolo[4,3-c]pyridin-4-yl)benzyl)-5-fluoro-2-methoxybenzamide]
10 | 5 to 50 nM | 50 to 500 nM | 5 to 50 nM | 50 to 500 nM | > 500 nM | > 500 nM | COc1ccc(F)cc1C(=O)NCc1ccc(-c2ncc(-c3ccc4c(n3)nc3n4C(C)COC3)c3[nH]nc(N)c23)cc1 (stereo not drawn) [Example 103, N-(4-(3-amino-7-(6-methyl-6,7-dihydro-9H-pyrido[2',3':4,5]imidazo[2,1-c][1,4]oxazin-2-yl)-1H-pyrazolo[4,3-c]pyridin-4-yl)benzyl)-5-fluoro-2-methoxybenzamide]
11 | 50 to 500 nM | > 500 nM | 5 to 50 nM | > 500 nM | > 500 nM | > 500 nM | COc1ccc(F)cc1C(=O)NCc1ccc(-c2ncc(-c3cccnc3)c3[nH]nc(N)c23)cc1 [Example 105, N-(4-(3-amino-7-(pyridin-3-yl)-1H-pyrazolo[4,3-c]pyridin-4-yl)benzyl)-5-fluoro-2-methoxybenzamide]
12 | 50 to 500 nM | > 500 nM | 50 to 500 nM | > 500 nM | > 500 nM | > 500 nM | COc1ccc(F)cc1C(=O)NCc1ccc(-c2ncc(-c3ccncc3)c3[nH]nc(N)c23)cc1 [Example 106, N-(4-(3-amino-7-(pyridin-4-yl)-1H-pyrazolo[4,3-c]pyridin-4-yl)benzyl)-5-fluoro-2-methoxybenzamide]
13 | 1 to 5 nM | 50 to 500 nM | 5 to 50 nM | 50 to 500 nM | > 500 nM | 50 to 500 nM | COc1ccc(F)cc1C(=O)NCc1ccc(-c2nc(C3CCOCC3)cc3[nH]nc(N)c23)cc1 [Example 115, N-(4-(3-amino-6-(tetrahydro-2H-pyran-4-yl)-1H-pyrazolo[4,3-c]pyridin-4-yl)benzyl)-5-fluoro-2-methoxybenzamide]
14 | 1 to 5 nM | 50 to 500 nM | 1 to 5 nM | 5 to 50 nM | > 500 nM | 50 to 500 nM | COc1ccc(F)cc1C(=O)NCc1ccc(-c2nc([C@H]3CC[C@H](CO)CC3)cc3[nH]nc(N)c23)cc1 [Example 117, N-(4-(3-amino-6-((1r,4r)-4-(hydroxymethyl)cyclohexyl)-1H-pyrazolo[4,3-c]pyridin-4-yl)benzyl)-5-fluoro-2-methoxybenzamide]
15 | ≤ 1 nM | 5 to 50 nM | ≤ 1 nM | 5 to 50 nM | 50 to 500 nM | 5 to 50 nM | N-(4-(3-amino-7-(1-(difluoromethyl)-1H-pyrazol-3-yl)-1H-pyrazolo[4,3-c]pyridin-4-yl)benzyl)-5-fluoro-2-methoxybenzamide [Example 29]
